The text below walks through data of PubChem BioAssay AID493156 (Johns Hopkins Ion Channel Center, 2011).

The experiment deals with Voltage-gated inwardly rectifying potassium channel KCNH2 (Homo sapiens) (UniProt Q12809). Description: hERG potassium channel inhibitors, primary screen, automated electrophysiology, CHO cells, Ionworks Quattro (AID 493156). Conditions: automated patch clamp current, stronger effect = lower value. For orientation: hERG is a cardiac potassium channel; its block is linked to QT prolongation.
Sequence of Voltage-gated inwardly rectifying potassium channel KCNH2 (Homo sapiens) (Q12809 whole entry, looked up): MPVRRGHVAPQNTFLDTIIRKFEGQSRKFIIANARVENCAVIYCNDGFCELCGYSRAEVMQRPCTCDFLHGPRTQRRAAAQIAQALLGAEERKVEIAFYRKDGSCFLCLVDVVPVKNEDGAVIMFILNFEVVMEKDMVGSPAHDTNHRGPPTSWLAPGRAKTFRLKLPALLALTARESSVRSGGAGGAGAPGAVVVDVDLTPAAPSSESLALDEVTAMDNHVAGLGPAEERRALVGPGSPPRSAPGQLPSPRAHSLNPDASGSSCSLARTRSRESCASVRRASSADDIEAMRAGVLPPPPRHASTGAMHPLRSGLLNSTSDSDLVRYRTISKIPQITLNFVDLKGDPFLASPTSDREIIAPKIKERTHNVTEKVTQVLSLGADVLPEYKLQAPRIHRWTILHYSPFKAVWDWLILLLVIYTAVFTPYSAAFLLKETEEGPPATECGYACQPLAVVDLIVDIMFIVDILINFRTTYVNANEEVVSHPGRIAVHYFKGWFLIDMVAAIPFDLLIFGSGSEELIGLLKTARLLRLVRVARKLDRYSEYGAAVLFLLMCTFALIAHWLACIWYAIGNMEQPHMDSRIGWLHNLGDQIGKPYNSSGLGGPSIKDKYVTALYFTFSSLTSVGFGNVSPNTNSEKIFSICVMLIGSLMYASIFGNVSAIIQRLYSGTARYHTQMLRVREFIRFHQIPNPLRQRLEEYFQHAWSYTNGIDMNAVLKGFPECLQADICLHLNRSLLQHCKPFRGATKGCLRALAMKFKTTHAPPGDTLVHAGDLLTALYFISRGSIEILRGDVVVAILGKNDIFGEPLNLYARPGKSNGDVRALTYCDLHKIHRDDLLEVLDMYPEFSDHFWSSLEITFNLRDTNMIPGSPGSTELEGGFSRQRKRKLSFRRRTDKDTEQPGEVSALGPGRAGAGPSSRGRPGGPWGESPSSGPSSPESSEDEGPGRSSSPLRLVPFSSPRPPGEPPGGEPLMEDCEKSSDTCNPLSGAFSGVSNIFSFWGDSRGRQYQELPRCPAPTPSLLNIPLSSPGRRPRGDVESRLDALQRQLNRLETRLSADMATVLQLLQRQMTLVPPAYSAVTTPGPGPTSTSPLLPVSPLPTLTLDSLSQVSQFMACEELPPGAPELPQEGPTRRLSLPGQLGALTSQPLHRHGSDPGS

Take `CCn1cc(CN2CCC(C(=O)Nc3cccc(-c4cccc(Cl)c4)c3)CC2)c(C)n1`: the current change, negative = inhibition reads like this: (at 10 µM) -100%; (current change, at 1 µM) -48.6%.

For the compound `CCc1ccc(CN2CCC(Oc3ccc(C(=O)N4CCCC4)cc3)CC2)cc1`, the current change, negative = inhibition reads like this: (at 10 µM) -100%; (current change, at 1 µM) -87.6%.

Regarding `Cc1cc(C)n(CCCN2CCC(C(=O)Nc3cccc(-c4cccc(F)c4)c3)CC2)n1`, the current change, negative = inhibition is, setting by setting: (at 10 µM) -100%; (current change, at 1 µM) -69.7%.

With `Cc1ccccc1CN1CCN(C(=O)c2cc(-c3ccncc3)nc3ccccc23)CC1`, the current change, negative = inhibition by setting is: (at 10 µM) -100%; (current change, at 1 µM) -25.6%.

As for `Cc1occc1C(=O)N1CCN(c2ccc([N+](=O)[O-])cc2)CC1`, the current change, negative = inhibition is -100% (at 10 µM) and -55.3% (current change, at 1 µM).

Turning to `CSc1cccc(CN2CCCC(CNC(=O)c3ccco3)C2)c1` (stereo not drawn), the current change, negative = inhibition (at 10 µM) was -100% and the current change, negative = inhibition (current change, at 1 µM) is -57.7%.

As for `Cc1ccc(-n2ncc3c2CCCC3NC(=O)c2ccoc2)cc1C` (stereo not drawn), the current change, negative = inhibition by setting is: (at 10 µM) -100%; (current change, at 1 µM) -88.6%.

In the case of `O=C(c1cccc(-c2ccco2)c1)N1CCCC(N2CCN(c3ccc(F)cc3)CC2)C1` (stereo not drawn), the current change, negative = inhibition was -100% (at 10 µM) and -45.2% (current change, at 1 µM).

For `Cc1ccccc1C(=O)Nc1ccnn1C1CCN(Cc2cccnc2)CC1`, the current change, negative = inhibition is, setting by setting: (at 10 µM) -100%; (current change, at 1 µM) -58.5%.
